# Measured values from paper PMC8466300, “Investigating the Central Nervous System Disposition of Actinomycin D: Implementation and Evaluation of Cerebral Microdialysis and Brain Tissue Measurements Supported by UPLC-MS/MS Quantification” (Pharmaceutics, 2021).
# Read-outs that look alike come from different tables or passages of the source. *1 amine or outer side, *2 acyl side, *3 side chain or, on linkers, in order; H or OH if unused. Where a SMILES comes first, the peptide text is derived from it. Bridges are numbered along the chain shown (N, C = ends). Roman numbers before positions name the chains, in order. [ ]: non-standard residue; d: D form. Actinocin(9to1) = Cc1c2oc3c(C)ccc(C(=O)[*:1])c3nc-2c(C(=O)[*:2])c(N)c1=O; NMeV = CN[C@H](C(=O)O)C(C)C; Sar = CNCC(=O)O
# How the values were obtained:
# [1] = rapid equilibrium dialysis, 12 h, 37 °C
# Method: (§1) To determine the previously unknown unbound fraction of actinomycin D in plasma and brain tissue homogenate, we performed rapid equilibrium dialysis (RED) in duplicate. For this, samples were spiked with drug solutions that were prepared in plasma or brain tissue homogenate to obtain minimally diluted samples (30 ng/mL for plasma and 30 ng/g for brain tissue). The free actinomycin D tissue fraction was also quantified in a pooled sample of brain tissue homogenates from the three mice euthanized 2 h after dosing. Determinations were performed on a RED apparatus (ThermoFisher Scientific, Waltham, MA, USA) according to the manufacturer´s instructions under gentle agitation for 12 h at 37 °C.
# [2] = system: P-gp; conditions: cited from earlier work
# [3] = in vivo; conditions: female, mouse, plasma, iv, 0.5 mg/kg; for level at 6 h / level at 22 h: NSG (NOD.Cg-Prkdc^scid Il2rg^tm1Wjl/SzJ), plasma actinomycin D concentration, incurred sample reanalysis table
# Method: (§5) The experiments were carried out in accordance with the European regulations for care and use of laboratory animals (2010/63/EU) under the German license number G-187/18 and the internal reference number DKFZ374, approved by the responsible regional council (Regierungspräsidium Karlsruhe, Germany). Female 8-week-old NSG mice (NOD.Cg-Prkdc^scid Il2rg^tm1Wjl/SzJ-NOD-SCID gamma-mice) with a weight of approximately 25 g were used for the studies. […] Mice received analgesia (metamizole) and anesthesia with isoflurane during surgery. […] Therefore, we chose to take blood samples 0.75, 6, and 22 h after intravenous bolus injection into the tail vein for the assay’s feasibility pharmacokinetic experiment. […] Full blood samples were transferred into citrate tubes (Sarstedt, Germany) and centrifuged at 1600× g for 10 min to generate plasma samples, which were stored at −80 °C until analysis. […] For validation of the UPLC-MS/MS quantification, blank plasma from 6 naïve mice was used and blank brain tissue was obtained from 2 unexposed mice.
# (§6) For protein precipitation of plasma microsamples, an excess of ACN (50 µL) with 0.1% FA containing the IS was applied to an Impact® 96-well protein precipitation plate (Phenomenex, Torrance, CA, USA). Subsequently, 20 µL of the plasma samples were added and the plates sealed and shaken for 1 min. […] For protein depletion, samples were filtered into a 96-well collection plate (Waters, Milford, MA, USA) by applying positive pressure with a 96-well positive pressure unit (Waters, Milford, MA, USA) operated with air overpressure of 5 psi. After addition of 40 µL of water containing 0.1% FA, the collection plates were sealed, shaken, and extracts injected onto the UPLC system.
# [4] = Stability in microdialysis buffer and in solution (assay validation); assay type: physicochemical; conditions: for 6-month stability in solution at 4°C, accuracy: ACN/H2O (1/1) + 0.1% FA solutions, 6 months; for 6-month stability in solution at 4°C, accuracy / 2 days buffer stability at RT, accuracy: N = 3; for 2 days buffer stability at RT, accuracy: microdialysate buffer (1% BSA Ringer)
# Method: Plasma calibration samples were prepared by spiking blank plasma (75 µL) with 25 µL of the calibration sub-solution, yielding plasma concentrations of 0.05, 0.2, 0.5, 1, 3, 10, 30, and 100 ng/mL. Plasma QC samples were prepared accordingly at concentrations of 0.05, 0.15, 3, and 60 ng/mL. Brain tissue homogenate calibration samples were prepared by spiking brain tissue homogenate (75 µL), which was prepared at 100 mg tissue per mL of 5% aqueous ACN containing 0.5% Triton X, with 25 µL of the calibration sub-solution, yielding concentrations corresponding to 0.5, 2, 5, 10, 30, 100, 300, and 1000 ng/g. Brain tissue homogenate QC samples were prepared accordingly, at corresponding concentrations of 0.5, 1.5, 30, and 600 ng/g. Solutions were kept at 4 °C for up to 6 months.
# [5] = female NSG mice, 0.5 mg/kg i.v. bolus, estimates; for Cmax: plasma at 0.75, 6, 22 h, UPLC-MS/MS; for t1/2 (half-life): plasma up to 22 h; for AUC (extrapolated to infinity): plasma
# Method: as §5, §6
# [6] = Non-specific binding to microdialysis equipment; assay type: physicochemical; conditions: in vitro; polypropylene sampling tubes; reduced by BSA ≥1% in Ringer solution
# Method: In preparation of the cerebral microdialysis, we first investigated the adsorption and recovery characteristics of the microdialysis probes, tubing, and pump system, to test the validity of the microdialysis determinations. […] In order to reduce nonspecific binding, BSA supplement of the microdialysis buffer was tested in different concentrations, ranging from 0.1 to 2%. […] Therefore, 1% BSA in Ringer solution was used for all microdialysis experiments.
# [7] = molecular target: P-gp/ABCB1 (Homo sapiens, UniProt P08183); conditions: 0.01 µM, 10-120 min, 37 °C, 1 million cells, duplicate, cell homogenate UPLC-MS/MS; L-MDR1 vs LLC-PK1
# Method: (§2) To confirm the P-gp substrate characteristics of actinomycin D, we conducted growth inhibition and uptake assays in a cell line over-expressing human P-gp/ABCB1 (L-MDR1 cells) in comparison to the respective parental cell line (LLC-PK1). L-MDR1 cells were kindly provided by A. H. Schinkel (The Netherlands Cancer Institute, Division of Experimental Therapy, Amsterdam, The Netherlands). The cells were cultured under standard cell culture conditions with medium M199 supplemented with 10% FCS, 2 mM glutamine, 100 U/mL penicillin, and 100 µg/mL streptomycin sulfate. The culture medium for L-MDR1 was supplemented with 0.64 µM vincristine to maintain P-gp/ABCB1 expression. One day before using the cells in the assays, both cell lines were fed with vincristine-free culture medium.
# [8] = system: LLC-PK1 cells; conditions: read-out: IC50 (proliferation); LLC-PK1 parental cells; four experiments, each concentration in octuplet; ten concentrations 0.0005–10 µM; sigmoid Emax model
# Method: as §2
# (§3) The assays were performed in quadruplicate, as described previously, using ten concentrations of actinomycin D from 0.0005–10 µM in octuplets.
# (§4) Calibration curves were determined with 1/x^2 weighted linear regression using peak area ratios of the analyte to IS. This calculation was performed using the software TargetLynx V4.2 (Waters, Milford, MA, USA). Plasma pharmacokinetics were determined with the software Kinetica (v 5.0; Thermo Fisher Scientific, Waltham, MA, USA). Standard calculations were performed using Microsoft Office Excel 2010 ([…]). Concentration–response curves and IC50 values were calculated by GraphPad Prism version 9.0.0 (GraphPad Software Inc., La Jolla, CA, USA) according to a sigmoid Emax model.
# [9] = system: L-MDR1 cells (over-expressing human P-gp/ABCB1); conditions: ratio of IC50 in P-gp over-expressing versus parental cells
# Method: as §2, §3, §4
# [10] = Method: as §2, §3, §4
# [11] = 7 months at −20 °C; cited from earlier work
# [12] = in vitro; conditions: mouse, plasma
# Method: as §1
# P-gp/ABCB1, sequence (P08183 whole entry): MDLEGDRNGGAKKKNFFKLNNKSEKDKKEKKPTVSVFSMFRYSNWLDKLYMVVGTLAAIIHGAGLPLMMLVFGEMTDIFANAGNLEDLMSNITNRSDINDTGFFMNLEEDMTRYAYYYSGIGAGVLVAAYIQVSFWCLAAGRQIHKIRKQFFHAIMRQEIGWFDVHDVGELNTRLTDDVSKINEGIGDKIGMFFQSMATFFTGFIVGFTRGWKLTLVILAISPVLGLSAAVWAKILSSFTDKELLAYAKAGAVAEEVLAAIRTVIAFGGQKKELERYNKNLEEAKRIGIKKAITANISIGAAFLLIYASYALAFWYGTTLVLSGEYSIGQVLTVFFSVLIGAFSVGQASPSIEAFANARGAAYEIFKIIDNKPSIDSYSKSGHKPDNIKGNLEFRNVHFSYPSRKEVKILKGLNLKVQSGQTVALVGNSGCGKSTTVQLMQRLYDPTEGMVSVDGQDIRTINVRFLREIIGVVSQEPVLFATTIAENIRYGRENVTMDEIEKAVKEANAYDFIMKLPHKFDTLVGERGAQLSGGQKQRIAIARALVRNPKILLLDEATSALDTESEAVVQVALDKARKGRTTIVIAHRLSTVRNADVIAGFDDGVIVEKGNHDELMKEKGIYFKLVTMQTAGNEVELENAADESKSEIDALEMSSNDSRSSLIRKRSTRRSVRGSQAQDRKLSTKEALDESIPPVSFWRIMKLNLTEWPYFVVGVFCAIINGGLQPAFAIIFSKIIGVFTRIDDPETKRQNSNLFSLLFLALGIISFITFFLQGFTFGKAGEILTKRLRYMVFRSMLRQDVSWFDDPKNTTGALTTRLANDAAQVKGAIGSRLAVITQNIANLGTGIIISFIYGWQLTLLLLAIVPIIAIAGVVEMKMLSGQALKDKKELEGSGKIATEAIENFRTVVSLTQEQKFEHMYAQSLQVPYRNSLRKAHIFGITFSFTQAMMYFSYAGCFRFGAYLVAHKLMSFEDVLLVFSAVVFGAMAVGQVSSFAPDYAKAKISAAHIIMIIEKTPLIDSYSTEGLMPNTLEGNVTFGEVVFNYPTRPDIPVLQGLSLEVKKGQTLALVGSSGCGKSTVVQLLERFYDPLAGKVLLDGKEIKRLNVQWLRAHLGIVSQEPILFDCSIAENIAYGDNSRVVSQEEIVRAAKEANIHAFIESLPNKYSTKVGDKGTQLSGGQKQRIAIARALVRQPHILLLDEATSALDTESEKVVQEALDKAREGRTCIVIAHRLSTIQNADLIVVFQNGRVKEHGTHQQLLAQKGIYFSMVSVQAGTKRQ
compound,measurement,setting,value
"Cc1c2oc3c(C)ccc(C(=O)N[C@@H]4C(=O)N[C@H](C(C)C)C(=O)N5CCC[C@H]5C(=O)N(C)CC(=O)N(C)[C@@H](C(C)C)C(=O)O[C@@H]4C)c3nc-2c(C(=O)N[C@@H]2C(=O)N[C@H](C(C)C)C(=O)N3CCC[C@H]3C(=O)N(C)CC(=O)N(C)[C@@H](C(C)C)C(=O)O[C@@H]2C)c(N)c1=O [actinomycin D, Actinomycin D] (I: T[dV]P[Sar][NMeV] / II: T[dV]P[Sar][NMeV]; ester I:1-I:C, II:1-II:C; linker I:N-II:N via Actinocin(9to1))",free fraction in spiked brain tissue homogenate,"[1]; minimally diluted homogenate spiked at 30 ng/g, duplicate, UPLC-MS/MS",3.4%
same,free fraction in brain tissue homogenate of dosed mice,"[1]; pooled homogenates of three mice 2 h after 0.5 mg/kg i.v., estimated from response values below LLOQ",< 3%
same,brain exposure in P-gp knockout mice relative to wildtype mice,[2],2.3 fold
same,level at 6 h,"[3]; incurred reanalysis, mouse # 6, sampling 6 h",1.17 ng/mL
same,level at 22 h,"[3]; incurred reanalysis, mouse # 6, sampling 22 h",1.16 ng/mL
same,level at 6 h,"[3]; incurred reanalysis, mouse # 7, sampling 6 h",5.23 ng/mL
same,level at 22 h,"[3]; incurred reanalysis, mouse # 7, sampling 22 h",5.17 ng/mL
same,level at 6 h,"[3]; original analysis, mouse # 6, sampling 6 h",1.31 ng/mL
same,level at 22 h,"[3]; original analysis, mouse # 6, sampling 22 h",1.36 ng/mL
same,level at 6 h,"[3]; original analysis, mouse # 7, sampling 6 h",5.51 ng/mL
same,level at 22 h,"[3]; original analysis, mouse # 7, sampling 22 h",4.48 ng/mL
same,AUC(0-inf),[3]; NSG,128 ± 31 ng·h/mL
same,Cmax,[3]; NSG,15.8 ± 5.1 ng/mL
same,Vd,[3]; NSG,1.1 ± 0.35 L
same,half-life,[3]; NSG,6.04 ± 0.75 h
same,stability in the microdialysis buffer,"[4]; 1% BSA in Ringer solution, 2 d, room temperature",stable
same,"6-month stability in solution at 4°C, accuracy",[4]; High QC 60.0 ng/mL,87.2%
same,"6-month stability in solution at 4°C, accuracy",[4]; Low QC 0.150 ng/mL,88.3%
same,"6-month stability in solution at 4°C, accuracy",[4]; Medium QC 3.00 ng/mL,86.4%
same,"2 days buffer stability at RT, accuracy","[4]; room temperature, High QC 60.0 ng/mL",104.7%
same,"2 days buffer stability at RT, accuracy","[4]; room temperature, Low QC 0.150 ng/mL",108.7%
same,"2 days buffer stability at RT, accuracy","[4]; room temperature, Medium QC 3.00 ng/mL",113.5%
same,time stable in solution,[4]; stored solutions kept at 4 °C,at least 6 months
same,Cmax,[5]; mouse 1,22.6 ng/mL
same,Cmax,[5]; mouse 2,14.6 ng/mL
same,Cmax,[5]; mouse 3,10.3 ng/mL
same,t1/2 (half-life),[5]; mouse 1,5.07 h
same,t1/2 (half-life),[5]; mouse 2,6.14 h
same,t1/2 (half-life),[5]; mouse 3,6.90 h
same,AUC (extrapolated to infinity),[5]; mouse 1,171 ng·h/mL
same,AUC (extrapolated to infinity),[5]; mouse 2,111 ng·h/mL
same,AUC (extrapolated to infinity),[5]; mouse 3,101 ng·h/mL
same,Cl (clearance),[5]; mouse 1,1.22 mL/min
same,Vss (volume of distribution),[5]; mouse 1,0.53 L
same,Cl (clearance),[5]; mouse 2,1.87 mL/min
same,Vss (volume of distribution),[5]; mouse 2,0.98 L
same,Cl (clearance),[5]; mouse 3,2.06 mL/min
same,Vss (volume of distribution),[5]; mouse 3,1.23 L
same,non-specific binding to microdialysis equipment,[6],substantially adhered
same,accumulation in P-gp over-expressing cell line versus parental cell line,[7],lower accumulation
same,IC50,[8],21 ± 6 nM
same,difference of IC50 L-MDR1 versus LLC-PK1,[9],> 100 fold
same,IC50,[10],2400 ± 600 nM
same,long-term stability in human plasma,[11],has already been demonstrated
same,"fraction unbound at 12 h, 30 ng/mL",[12],0.231
